We go through 3 compounds from EPA's ToxRefDB 2.

For data set [1], the system named is rat. The note with it: Combined chronic toxicity/carcinogenicity, sprague dawley, Oral, Feed, dose end: 104 week, group: systemic.
A further data set concerns mouse. The following applies: Carcinogenicity, cd1, Oral, Feed, dose end: 22 month, group: systemic.
Data set [2] relates to rat. The following applies: Multigenerational reproductive toxicity study, sprague dawley, Oral, Feed, dose end: 2 generation.
For another data set, the system named is primate. The note with it: Sub-acute repeat dose toxicity, macaque, Oral, Gavage/Intubation, dose end: 4 week, group: systemic.
Data set [3] has as its system dog. The note with it: Sub-acute repeat dose toxicity, beagle, Oral, Gavage/Intubation, dose end: 4 week, group: systemic.
The test system of data set [4] is dog. The following applies: Sub-acute repeat dose toxicity, beagle, Oral, Gavage/Intubation, dose end: 4 week, group: systemic. The source holds these as a separate data set.
In data set [5] the test system is rat. The note with it: Sub-acute repeat dose toxicity; sprague dawley; Oral; Gavage/Intubation; dose end: 4 week; group: systemic; systemic / organ weight / liver / absolute + systemic / organ weight / liver / relative to body weight.
The next data set deals with rabbit. The following applies: Prenatal developmental toxicity study; himalayan; Oral; Gavage/Intubation; dose end: 18 GD; group: maternal; systemic / in life observation / clinical signs / defecation + systemic / in life observation / clinical signs / feces, discoloration + ….
For data set [6], the system named is rat. The note with it: Prenatal developmental toxicity study; sprague dawley; Injection; Intramuscular; dose end: 14 GD; group: developmental; developmental / developmental malformation / mouth / jaw / cleft palate + developmental / developmental malformation / trunk / umbilical ….
For data set [7], the system named is rat. The following applies: Prenatal developmental toxicity study, sprague dawley, Injection, Intramuscular, dose end: 13 GD.
The mark [8] stands for this setting: systemic / in life observation / body weight / body weight + systemic / in life observation / body weight / body weight gain.
The mark [9] stands for this setting: systemic / in life observation / body weight / body weight + systemic / in life observation / body weight / body weight gain + systemic / ….
Where [10] appears, read: systemic / in life observation / body weight / body weight + systemic / in life observation / body weight / body weight gain + systemic / in….
Setting [11] is: group: offspring, systemic / in life observation / body weight / offspring (pup) weight.
Setting [12] is: group: parental, systemic / in life observation / body weight / body weight + systemic / in life observation / body weight / body weight gain.
The mark [13] stands for this setting: systemic / clinical chemistry / bilirubin / total bilirubin + systemic / organ weight / liver / relative to body weight + systemic / ….
Setting [14] is: systemic / pathology microscopic / liver / granuloma + systemic / pathology microscopic / liver / infiltration cellular + systemic / ….
Where [15] appears, read: systemic / clinical chemistry / alanine aminotransferase (alt/sgpt) / alanine aminotransferase (alt/sgpt) + systemic / clinical chemistry / ….
Setting [16] is: systemic / clinical chemistry / alkaline phosphatase (alp/alk) / alkaline phosphatase (alp/alk).
Setting [17] is: systemic / clinical chemistry / alkaline phosphatase (alp/alk) / alkaline phosphatase (alp/alk) + systemic / pathology microscopic / liver….
[18] abbreviates: systemic / pathology microscopic / liver / pigmentation.
Where [19] appears, read: group: developmental, developmental / developmental malformation / mouth / jaw / cleft palate + developmental / developmental malformation / trunk / umbilical ….
[20] abbreviates: group: developmental, developmental / developmental malformation / mouth / jaw / cleft palate + systemic / in life observation / body weight / fetal weight.
Setting [21] is: group: maternal, reproductive / offspring survival early / dead fetuses / dead fetuses.

One may read the LOAEL as the lowest tested level that showed an adverse finding. One may read the NOAEL as the highest tested level that showed no adverse finding.

Take `COc1nc(NC(C)C)nc(NC(C)C)n1` [Prometon]: the LEL came out at 23.3 mg/kg/day with rat [1] (setting [8]), 70 mg/kg/day in the data set with mouse (systemic / pathology microscopic / spleen / depletion), 35.1 mg/kg/day in the data set on rat [2] (setting [11]) and 35.1 mg/kg/day with rat [2] (setting [12]). Further, the LOAEL with rat [1] (setting [8]) came to 23.3 mg/kg/day; with mouse (setting [10]) it was 737 mg/kg/day; in the data set with rat [2] (setting [11]) it was 35.1 mg/kg/day; in the data set on rat [2] (setting [12]) it was 35.1 mg/kg/day. Besides, the NEL in the data set with rat [1] (setting [9]) worked out at 0.89 mg/kg/day; in the data set with mouse (setting [10]), 1.7 mg/kg/day; with rat [2] (setting [11]) it was 1.45 mg/kg/day; in the data set on rat [2] (setting [12]) it was 1.45 mg/kg/day. Also, the no-observed-adverse-effect level (NOAEL) with rat [1] (setting [9]) was found to be 0.89 mg/kg/day; with mouse (setting [10]) it was 70 mg/kg/day; in the data set with rat [2] (setting [11]), 1.45 mg/kg/day; in the data set with rat [2] (setting [12]), 1.45 mg/kg/day.
Take `CC[C@H](NC(=O)c1cc(F)ccc1[N-]S(=O)(=O)c1cccc2cccnc12)c1ccccc1.[Na+]` [AVE3295]: the LOAEL was over 1000 mg/kg/day in the data set with primate (setting [13]); over 300 mg/kg/day in the data set with dog [3] (setting [15]); 5 mg/kg/day in the data set on dog [4] (setting [17]); over 2000 mg/kg/day in the data set with rat [5]; over 1000 mg/kg/day with rabbit. Moreover, the NOAEL was at least 1000 mg/kg/day in the data set on primate (setting [13]); at least 300 mg/kg/day with dog [3] (setting [15]); 1 mg/kg/day in the data set with dog [4] (setting [17]); at least 2000 mg/kg/day with rat [5]; at least 1000 mg/kg/day in the data set on rabbit. For the same compound, the LEL in the data set with primate (setting [14]) came out at 60 mg/kg/day; in the data set with dog [3] (setting [16]), 10 mg/kg/day; in the data set with dog [4] (setting [18]) it was 1 mg/kg/day; in the data set with rat [5], 2000 mg/kg/day; in the data set on rabbit, 1000 mg/kg/day. The NEL in the data set on primate (setting [14]) was under 60 mg/kg/day; with dog [3] (setting [16]) it was under 10 mg/kg/day; with dog [4] (setting [18]) it was under 1 mg/kg/day; in the data set on rat [5], 315 mg/kg/day; with rabbit, 250 mg/kg/day.
With `CC1(C)O[C@@H]2C[C@H]3[C@@H]4CCC5=CC(=O)C=C[C@]5(C)[C@@]4(F)[C@@H](O)C[C@]3(C)[C@]2(C(=O)CO)O1` [Triamcinolone acetonide], in the data set with rat [6], the LEL was determined as 0.5 mg/kg/day, the LOAEL was over 0.5 mg/kg/day, the NEL was under 0.5 mg/kg/day and the NOAEL was at least 0.5 mg/kg/day. In the data set on rat [7] (setting [19]), the LOAEL was over 5 mg/kg/day and the NOAEL is at least 5 mg/kg/day. Moreover, in the data set with rat [7] (setting [20]), the LEL was 0.5 mg/kg/day and the NEL was under 0.5 mg/kg/day. Moreover, in the data set with rat [7] (setting [21]), the LEL amounted to 2.5 mg/kg/day, the LOAEL was over 5 mg/kg/day, the NEL was 0.5 mg/kg/day and the NOAEL is at least 5 mg/kg/day.
